Patent US6448392B1, “Lipid derivatives of antiviral nucleosides: liposomal incorporation and method of use” (Chimerix, Inc., priority 1985, dated 2002)
Where “and” joins values, the source holds several entries; their conditions need not be identical. Equal values may be shown once. Where a name gives a salt, the structure may show the parent alone. Read-outs that look alike come from different tables or passages of the source. Blank lines part the entries; values can stand above or below the compound they belong to.

What was measured:
[1] = system: HIV (LAV-1 strain); type: cell-based; details: for EC50: CEM wild type; for inhibition of HIV p24 production: Experiment H747-1b, CEM cells
Method: 6.42 micromoles of dioleoylphosphatidylcholine, 3.85 micromoles of cholesterol, 1.28 micromoles of dioleoylphosphatidylglycerol and 1.28 micromoles of dimyristoylphosphatidyl-azidothymidine were mixed in a sterile 2.0 ml glass vial and the solvent was removed in vacuo in a rotary evaporator. In some experiments, dimyristoylphosphatidylazidothymidine was replaced with either dimyristoylphosphatidyldideoxythymidine, dimyristoylphosphatidyldideoxycytidine or azidothymidine diphosphate dimyristoylglycerol; control liposomes were prepared by omitting the antiviral liponucleotide. The dried film was placed under high vacuum overnight at room temperature to remove traces of solvent. The lipid film was hydrated at 30° C. with 0.3 ml of sterile 10 mM sodium acetate buffer (pH 5.0) containing isotonic dextrose and the ampule was sealed. The mixture was vortexed intermittently for 10 minutes followed by sonication using a Heat Systems Ultrasonics sonicator with a cup horn generator (431B) at output control setting #9 for 90 to 120 minutes at which time the sample is clarified. This sonicated preparation was diluted with sterile RPMI buffer and added to the tissue culture wells at the concentration indicated.
(§1) The human T lymphoblastoid cell line, CCRG-CEM (hereafter referred to as CEM), was grown in RPMI 1640 medium containing 100 U/ml penicillin G, 100 ug/ml streptomycin, 2 mM glutamine and 10% fetal bovine serum (Hyclone Laboratories, Logan, Utah). Cells were infected with the LAV-1 strain (L. Montagnier, Paris, France) at a multiplicity of infection of one tissue culture 50% infectious dose (TCID50)/cell for 60 minutes at 37° C. in medium containing […]. CEM cells were infected in suspension at 6×10^4 cells/ml, washed three times by centrifugation and resuspension and then distributed in 96-well plates at 6×10^4 cells/well before addition of medium containing the liposomal antiretroviral liponucleotide drugs.
(§2) Antiviral activity was assayed after 3 days by the inhibition of the production of HIV p24 (gag) antigen in the cell free culture medium of the infected cells exposed to different concentrations of drug; p24 antigen was measured by ELISA (Abbott Laboratories, Chicago, Ill.) according to the manufacturer's instructions. The data are the average of two determinations and are expressed as percentage of a control incubated in the absence of drugs.

[2] = system: HSV-1; test: Herpes simplex virus plaque reduction assay, HSV-1 in Wi-38 cells; type: cell-based, Herpes simplex virus type 1; details: for IC50: HSV-1 infected Wi-38 cells, plaque reduction, read-out: concentration which produces 50% inhibition
Method: Wi-38 cells were obtained from American Type Culture Collection (Rockville, Md. 20852) and grown in Dulbecco's minimum essential medium (DMEM) with 10% fetal calf serum (FCS). The cells were grown in 250 cm square bottles until reaching confluence.
Herpes simplex virus (HSV) type 1 (HSV-1) and type 2 (HSV-2) were obtained from the American Type Culture Collection. Both virus stocks were prepared in Wi-38 cells; extensive cytopathic effects (CPD) were observed when the stock virus was harvested by a single freezing and thawing and the cell debris was clarified by low speed centrifugation (2000 rpm). Supernatant fluids containing the virus were aliquoted into small vials and stored at −80° C. Both HSV-1 and HSV-2 stocks were titered in Wi-38 cells before use in the experiments.
The plaque reduction assay was used to measure the antiviral effect of phosphatidylacyclovir or free ACV. Wi-38 cells were trypsinized with 0.25% trypsin for 5 min. The cells were harvested and centrifuged to remove residual trypsin and the cell pellet was resuspended in DMEM with 10% FCS. The Wi-38 cells were plated in a 96 well plate ([…] cells/well) for one hour. The infected cells were then treated with phosphatidylacyclovir or ACV. The antiviral agents were prepared in stock solutions which were then diluted two-fold with 2% FBS in DMEM containing 0.5% methylcellulose. 100 μl of each diluted antiviral agent was added into each well of HSV infected cells.
The control and drug-treated cell cultures were incubated in a 37° C. incubator with 5% carbon dioxide for 24 hours. […] The dye was rinsed off with tap water and the plate was dried and plaques were counted. The antiviral effect of ACV or phosphatidylacyclovir was determined by measurement of plaque reduction as shown in the example below.

[3] = system: HIV in CEM tk- cells; test: Inhibition of HIV p24 production in thymidine kinase deficient CEM tk- cells; type: cell-based; details: Experiment H637-1b, AZT 0.2 to 100 uM
Method: as §1, §2
In this experiment, CEM cells were replaced with mutant cells (provided by Dr. Dennis Carson, Scripps Clinic, San Diego, Calif.) which lack the thymidine kinase enzyme (CEM tk−).

[4] = system: HIV in CEM (wild type) cells; test: Experiment I276: antiviral protection of CEM cells by preincubation, p24 in supernates; type: cell-based; details: 3 day preincubation; 24 and 48 hours in normal media after removal of drug
Method: The cells were then washed twice with PBS, and fresh RPMI media added. Each group of cells was then divided into three batches. One batch was immediately infected with HIV, as noted above; after washing away unattached HIV, the sample was allowed to incubate in media alone for 3 days. Two other batches were allowed to incubate in media alone for either 24 or 48 hours to allow any intracellular antiviral agent present to become depleted. Then they were infected with HIV, the cells washed free of virus, and fresh RPMI media added. After 3 days of further incubation, the supernates of all batches were tested for the presence of p24 protein.
CEM cells were subjected to HIV infection without preincubation; drug was added following HIV infection as indicated, and the cells were incubated for 3 days.
After a further incubation for 3 days, p24 was measured.

[5] = system: HIV (LAV-1); test: HIV plaque formation in HT4-6C cells (CD4+ HeLa cells) infected with LAV-1; type: cell-based
Method: In this experiment the compound of Example 7 (1-O- stearoylglycero-rac-3-phospho-5′-(3′-deoxy, 3′-azido)thymidine) was incorporated into liposomes containing 10 mole percent of the liponucleotide as indicated in Example 8. This material was diluted with RPMI medium to the desired concentration and added to HT4-6C cells (CD4+ HeLa cells) obtained from Dr. Bruce Chesbro of the Rocky Mountain National Laboratories (Hamilton, Mont.) which had been infected with LAV-1 as noted earlier in this example. After a 3 day incubation at 37° C., the cells were washed with PBS, fixed and stained with crystal violet and the plaques were counted.
PalmitoylAZT was incorporated into liposomes as noted in Example 8 and incubated with LAV-1 infected HT4-6C cells as noted in Examples 10 and 11. 0.8 uM palmitoylAZT inhibited plaque formation by 25% (134 plaques versus 176 in the untreated control).

[6] = Experiment H533-1, liposomes containing 10 mole percent liponucleotide, p24 after 3 days, read-out: amount of drug required to reduce virus production by 50% (E.D. 50)
[7] = 10 uM liponucleotide in liposomes, 3 day incubation
[8] = Experiment H805-1, liposomes, p24, read-out: ED50 (the source's name)

EC50 [1, 6]: 8000 nM
Compound: CCCCCCCCCCCCCC(=O)OCC(COP(=O)(O)OP(=O)(O)OCC1OC(n2cc(C)c(=O)[nH]c2=O)CC1N=[N+]=[N-])OC(=O)CCCCCCCCCCCCC (stereo not shown) [LN4, azidothymidine diphosphate dimylristoylglycerol]

Compound: Nc1nc2c(ncn2COCCO)c(=O)[nH]1 [Acyclovir, Acycloguanosine, reference compound]
% no Drug ([2]; Acyclovir 0.155 uM): 73%
plaques (determinations 1 and 2) ([2]; Acyclovir 0.155 uM): 18 and 22
plaques, mean ([2]; Acyclovir 0.155 uM): 20
% no Drug ([2]; Acyclovir 0.31 uM): 65%
plaques (determinations 1 and 2) ([2]; Acyclovir 0.31 uM): 17 and 19
plaques, mean ([2]; Acyclovir 0.31 uM): 20
% no Drug ([2]; Acyclovir 0.625 uM): 26%
plaques (determinations 1 and 2) ([2]; Acyclovir 0.625 uM): 8 and 6
plaques, mean ([2]; Acyclovir 0.625 uM): 7
% no Drug ([2]; Acyclovir 1.25 uM): 13%
plaques (determinations 1 and 2) ([2]; Acyclovir 1.25 uM): 4 and 3
plaques, mean ([2]; Acyclovir 1.25 uM): 3.5
% no Drug ([2]; Acyclovir 2.5 uM): 0%
plaques (determinations 1 and 2) ([2]; Acyclovir 2.5 uM): 0
plaques, mean ([2]; Acyclovir 2.5 uM): 0
% no Drug ([2]; Acyclovir 5 uM): 0%
plaques (determinations 1 and 2) ([2]; Acyclovir 5 uM): 0
plaques, mean ([2]; Acyclovir 5 uM): 0
% no Drug ([2]; Acyclovir 10 uM): 0%
plaques (determinations 1 and 2) ([2]; Acyclovir 10 uM): 0
plaques, mean ([2]; Acyclovir 10 uM): 0
IC50 ([2]; Human alphaherpesvirus 1): 400 nM

Compound: Cc1cn([C@H]2C[C@H](N=[N+]=[N-])[C@@H](CO)O2)c(=O)[nH]c1=O [Example N1, 3′-azido-3′-deoxythymidine, reference compound]
effect on p24 production [3]: completely without effect
protection from HIV after removal of the drug [4]: failed to protect the cells from HIV infection
effectiveness in reducing p24, free AZT versus liponucleotide ([1]; Experiment H747-1a, low concentrations below 0.1 uM): more effective than the liponucleotide

Compound: Cc1cn([C@H]2CC[C@@H](CO)O2)c(=O)[nH]c1=O [Example N2, 2′,3′-dideoxythymidine, reference compound]
inhibition of HIV p24 production [1]: weak inhibitor of HIV p24 production

Compound: CCCCCCCCCCCCCCCC(=O)OC[C@H]1O[C@@H](n2cc(C)c(=O)[nH]c2=O)C[C@@H]1N=[N+]=[N-] [PalmitoylAZT, 5′-palmitoyl(3′-deoxy-3′-azido)thymidine]
plaques ([5]; 0.8 uM in liposomes, 176 in the untreated control): 134
inhibition of plaque formation ([5]; 0.8 uM in liposomes, LAV-1 infected HT4-6C cells): 25%

IC50 ([5]; HT4-6C cells infected with LAV-1, liposomes, read-out: concentration required to produce 50% inhibition of HIV plaque formation): ~350 nM
Compound: CCCCCCCCCCCCCCCCCC(=O)OCC(O)COP(=O)(O)OC[C@H]1O[C@@H](n2cc(C)c(=O)[nH]c2=O)C[C@@H]1N=[N+]=[N-] (mixture of isomers) [Example 7, 1-O-stearoylglycero-rac-3-phospho-5′-(3′-azido-3′-deoxy)thymidine]
% of Untreated Control ([5]; 0.0316 uM): 78%
Plaques, Average ([5]; 0.0316 uM): 43
% of Untreated Control ([5]; 0.100 uM): 71%
Plaques, Average ([5]; 0.100 uM): 39
% of Untreated Control ([5]; 0.316 uM): 58%
Plaques, Average ([5]; 0.316 uM): 32
% of Untreated Control ([5]; 1.0 uM): 29%
Plaques, Average ([5]; 1.0 uM): 16
% of Untreated Control ([5]; 3.16 uM): 13%
Plaques, Average ([5]; 3.16 uM): 7
% of Untreated Control [5, 7]: 2%
Plaques, Average [5, 7]: 1

Compound: CCCCCCCCCCCCCC(=O)OC[C@@H](COP(=O)(O)OC[C@@H]1CC[C@H](n2cc(C)c(=O)[nH]c2=O)O1)OC(=O)CCCCCCCCCCCCC [LN2, 1,2-Dimyristoylglycerophospho-5′-(3′-deoxy)thymidine, Monosodium Salt]
effect on p24 production [3]: capable of reducing p24 production
EC50 [1, 6]: 30000 nM
inhibition of HIV p24 production [1]: somewhat more effective than the free nucleoside
EC50 [1, 8]: 20000 nM

Compound: CCCCCCCCCCCCCC(=O)OCC(COP(=O)(O)OCCOCn1cnc2c(=O)[nH]c(N)nc21)OC(=O)CCCCCCCCCCCCC (stereo in doubt) [PhosphatidylACV, dimyristoylphosphatidylacycloguanosine]
IC50 [2]: 2000 nM
% no Drug ([2]; PhosphatidylACV 0.84 uM): 91%
plaques (determinations 1 and 2) ([2]; PhosphatidylACV 0.84 uM): 24 and 26
plaques, mean ([2]; PhosphatidylACV 0.84 uM): 25
% no Drug ([2]; PhosphatidylACV 1.67 uM): 67%
plaques (determinations 1 and 2) ([2]; PhosphatidylACV 1.67 uM): 17 and 20
plaques, mean ([2]; PhosphatidylACV 1.67 uM): 18.5
% no Drug ([2]; PhosphatidylACV 3.3 uM): 40%
plaques (determinations 1 and 2) ([2]; PhosphatidylACV 3.3 uM): 10 and 12
plaques, mean ([2]; PhosphatidylACV 3.3 uM): 11
% no Drug ([2]; PhosphatidylACV 6.7 uM): 27%
plaques (determinations 1 and 2) ([2]; PhosphatidylACV 6.7 uM): 6 and 9
plaques, mean ([2]; PhosphatidylACV 6.7 uM): 7.5
% no Drug ([2]; PhosphatidylACV 13.4 uM): 18%
plaques (determinations 1 and 2) ([2]; PhosphatidylACV 13.4 uM): 4 and 6
plaques, mean ([2]; PhosphatidylACV 13.4 uM): 5
% no Drug ([2]; PhosphatidylACV 27 uM): 9%
plaques (determinations 1 and 2) ([2]; PhosphatidylACV 27 uM): 2 and 3
plaques, mean ([2]; PhosphatidylACV 27 uM): 2.5
% no Drug ([2]; PhosphatidylACV 54 uM): 0%
plaques (determinations 1 and 2) ([2]; PhosphatidylACV 54 uM): 0
plaques, mean ([2]; PhosphatidylACV 54 uM): 0
% no Drug ([2]; PhosphatidylACV 107 uM): 0%
plaques (determinations 1 and 2) ([2]; PhosphatidylACV 107 uM): 0
plaques, mean ([2]; PhosphatidylACV 107 uM): 0

EC50 [1, 6]: 2000 nM
Compound: CCCCCCCCCCCCCC(=O)OC[C@H](COP(=O)(O)OC[C@H]1O[C@@H](n2cc(C)c(=O)[nH]c2=O)C[C@@H]1N=[N+]=[N-])OC(=O)CCCCCCCCCCCCC [LN1, 1,2-Dimyristoylglycerophospho-5′-(3′-azido-3′-deoxy)thymidine, Monosodium Salt]
effect on p24 production [3]: capable of reducing p24 production
protection from HIV after removal of the drug [4]: complete protection from HIV replication
effectiveness in reducing p24, phosphatidylAZT liposomes versus free AZT ([1]; Experiment H747-1a, concentrations ranging from 2 to 170 uM): more effective than the free AZT

Compound: CCCCCCCCCCCCCC(=O)OCC(COP(=O)(O)OCC1CCC(n2ccc(N)nc2=O)O1)OC(=O)CCCCCCCCCCCCC (stereo not shown) [LN3, 1,2-dimyristoylglycerophospho-5′-(3′-dideoxy)cytidine]
EC50 [1, 8]: 1100 nM
